The source made the active and inactive calls.
Columns and labels:
[1] = target: 5-hydroxytryptamine receptor 2A (Mus musculus, UniProt P35363); type: functional, cell-based;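 also: CHO-K1 cells with tagged receptor and beta-arrestin; agonist potency measured as compound-induced activation of the receptor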
Mu-type opioid receptor = Mu-type opioid receptor (Homo sapiens, UniProt P35372); type: functional, cell-based;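 also: U2OS cells with beta-arrestin recruitment to OPRM1 by beta-gal complementation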
[2] = viability of uninfected HEp-2 cells – cell-based, HTS, cytotoxicity control for RSV inhibitor project, dose response (AID 2410); type: functional; details: human respiratory syncytial virus
[3] = microbe, parasite or virus in culture; type: functional; details: Mycobacterium tuberculosis
[4] = target: T1, Rac GTPase-activating protein 1 (Homo sapiens, UniProt Q9H0H5); experiment: blockers of MgcRacGAP-driven Rac1 GTP hydrolysis – biochemical, ADP Hunter fluorescence, primary and confirmatory, confirmation (AID 624330); type: functional
T1 sequence (Q9H0H5 whole entry): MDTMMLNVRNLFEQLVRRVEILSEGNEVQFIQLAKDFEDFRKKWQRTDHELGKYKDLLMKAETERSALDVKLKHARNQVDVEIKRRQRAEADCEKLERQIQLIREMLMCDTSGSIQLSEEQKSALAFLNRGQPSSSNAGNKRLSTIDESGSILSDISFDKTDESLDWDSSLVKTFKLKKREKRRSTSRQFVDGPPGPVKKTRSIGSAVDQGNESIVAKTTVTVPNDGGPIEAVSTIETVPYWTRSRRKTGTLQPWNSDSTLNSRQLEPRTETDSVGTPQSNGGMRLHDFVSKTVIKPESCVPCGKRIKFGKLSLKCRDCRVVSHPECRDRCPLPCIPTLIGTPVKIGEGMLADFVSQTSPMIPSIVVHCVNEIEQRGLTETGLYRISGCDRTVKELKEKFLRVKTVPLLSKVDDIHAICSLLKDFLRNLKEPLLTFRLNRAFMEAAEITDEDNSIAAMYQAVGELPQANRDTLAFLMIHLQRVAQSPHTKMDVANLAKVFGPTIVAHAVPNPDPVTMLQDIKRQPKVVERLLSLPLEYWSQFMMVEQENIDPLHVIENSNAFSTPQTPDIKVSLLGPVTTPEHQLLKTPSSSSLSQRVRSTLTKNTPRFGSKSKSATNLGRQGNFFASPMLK

[5] = viability loss in HeLa cells – cytotoxicity control for MgcRacGAP inhibitor project, dose response (AID 624300); type: functional
[6] = P. falciparum Dd2 growth inhibitors, dose response, SYBR Green, cherry-picked samples (AID 1159567); type: functional, cell-based
H4 = experiment: Luminescence Cell-Based Dose Response HTS to Identify Activators of 5'UTR Stem-Loop Driven Prion Protein mRNA Translation in H4 Neuroglioblastoma Cells. [Related pubchem assays: 1829 (Project Summary), 1814 (Primary HTS)]; type: functional; details: Homo sapiens
cells [7] = experiment: cells
[8] = Luminescence Cell-Based Dose Response HTS to Identify Activators of Luciferase Translation or Activity in H4 […] Cells. [Related pubchem assays: 1829 (Project Summary), 1814 (Primary HTS)]; type: functional
[9] = Luminescence Cell-Based Dose Confirmation HTS to Identify Activators of 5'UTR Stem-Loop Driven Alpha-Synuclein mRNA Translation in H4 Neuroglioblastoma Cells. [Related pubchem assays: 1829 (Project Summary), 1814 (Primary HTS)]; type: functional
[10] = NIH3T3 cell viability loss – ATP luminescence, mouse fibroblasts, counter-screen, dose response (AID 2010); type: functional, cell-based; details: NIH3T3;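 also: cells exposed to compound for about 90 hours before reading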
[11] = Trypanosoma cruzi growth suppression in host cells – NIH3T3 host cells, beta-gal luminescence, confirmation (AID 2044); type: functional, cell-based;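 also: intracellular parasites grown in NIH/3T3 mouse fibroblasts as host cells; luminescent beta-galactosidase reporter signal from transgenic T. cruzi replicating inside host cells; inhibitors lower the luminescence signal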
[12] = cytotoxicity toward Colo320 cells – cell-based, CellTiter-Glo luminescence, IC50, dose response (AID 1117334); type: functional; details: COLO 320
[13] = HCT116 cell viability decrease, GSK3B pretreatment – CellTiter-Glo, IC50, dose response (AID 1117339); type: functional; details: HCT-116
[14] = cytotoxicity toward HT-29 cells – cell-based, CellTiter-Glo luminescence, IC50, dose response (AID 1117330); type: functional
[15] = Reduced DLD-1 viability, concentration-response, CellTiter-Glo luminescence (AID 1117352); type: functional
[16] = cytotoxicity toward HCT116 cells – cell-based, CellTiter-Glo luminescence, IC50, dose response (AID 1117332); type: functional; details: HCT-116
[17] = CellTiter-Glo luminescence survival assay, SW480 colon tumor line, concentration-response curve, half-maximal inhibitory concentration (AID 1117338); type: functional
[18] = SNU-C1 cell viability reduction, dose response, CellTiter-Glo luminescence (AID 1117323); type: functional, cell-based
[19] = RKO cell viability reduction, dose response, CellTiter-Glo luminescence (AID 1117322); type: functional
[20] = Luminescence Cell-Based Dose Response HTS to Identify Inhibitors of 5'UTR Stem-Loop Driven Prion Protein mRNA Translation in H4 Neuroglioblastoma Cells. [Related pubchem assays: 1827 (Project Summary), 1813 (Primary HTS)]; type: functional
[21] = HIV-1 AD8 envelope cell-cell fusion blockers – cherry-pick, dose response (AID 652062); type: functional, cell-based;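 also: luciferase signal from cell-cell fusion driven by HIV-1 clade B AD8 Env; potency is for inhibitors of fusion seen as a drop in luminescence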
[22] = target: T2, Heat shock factor protein 1 (Mus musculus, UniProt P38532); experiment: decrease of HSF1-responsive luciferase luminescence – cell-based, NIH3T3, dose retest, confirmation (AID 2382); type: functional;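 also: NIH3T3 fibroblasts with HSF1-driven luciferase reporter stressed by proteasome inhibitor MG132; luminescence from HSF1-driven luciferase expression after 8 hours of MG132 stress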
T2 sequence (P38532 whole entry): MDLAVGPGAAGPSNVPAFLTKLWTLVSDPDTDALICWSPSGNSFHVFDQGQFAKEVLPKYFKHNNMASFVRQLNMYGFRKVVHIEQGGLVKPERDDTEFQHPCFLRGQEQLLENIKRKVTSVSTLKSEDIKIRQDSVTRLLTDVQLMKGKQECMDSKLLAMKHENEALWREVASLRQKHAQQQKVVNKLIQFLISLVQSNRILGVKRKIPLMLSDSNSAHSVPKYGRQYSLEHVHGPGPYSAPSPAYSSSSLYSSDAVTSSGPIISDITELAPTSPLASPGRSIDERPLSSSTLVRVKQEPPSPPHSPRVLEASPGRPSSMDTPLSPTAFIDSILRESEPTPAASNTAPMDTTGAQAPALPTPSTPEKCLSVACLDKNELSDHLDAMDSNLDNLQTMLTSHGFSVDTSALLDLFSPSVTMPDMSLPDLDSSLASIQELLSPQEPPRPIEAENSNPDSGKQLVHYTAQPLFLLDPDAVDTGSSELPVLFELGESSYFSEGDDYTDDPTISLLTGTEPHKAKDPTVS

[23] = off-target signal loss in HeLa-CEM21 co-culture – HeLa F-luc CTL cells, cherry-picked, counter-screen for HIV-1 Env fusion inhibitor project, dose response (AID 652040); type: functional, cell-based;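 also: potency for signal decrease marking cytotoxic or nonspecific inhibition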
[24] = viability loss in CEM21 cells – cell-based, CellTiter-Glo luminescence, cherry-picked, cytotoxicity control for viral fusion inhibitor project, dose response (AID 652042); type: functional;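 also: potency for signal decrease meaning cytotoxicity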
cells [25] = type: functional, cell-based
[26] = luciferase reporter signal suppression in cells – H4 neuroglioma cells, luminescence, dose response (AID 1990); type: functional, cell-based
[27] = alpha-synuclein stem-loop luciferase translation blockers – H4 neuroglioma cells, luminescence, confirmation (AID 1988); type: functional, cell-based
[28] = blockers of HIV-1 ZM109 envelope-driven cell-cell fusion – HeLa effector, CEM target cells, luciferase, cherry-pick, dose response (AID 652058); type: functional, cell-based;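 also: luciferase signal from HIV-1 Env mediated cell-cell fusion of effector and target cells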
cells [29] = type: functional, cell-based; remark: listed apart in the source
[30] = blockers of HIV-1 envelope-mediated cell-cell fusion – cherry-pick, dose response (AID 652057); type: functional, cell-based
[31] = Luminescence Cell-Based Dose Response to Identify Activators of Luciferase Translation or Activity in H4-C Neuroglioblastoma Cells. [Related pubchem assays: 1829 (Project Summary), 1814 (Primary HTS)]; type: functional
[32] = Luminescence Cell-Based Dose Response to Identify Activators of 5'UTR Stem-Loop Driven Prion Protein mRNA Translation in H4-C Neuroglioblastoma Cells. [Related pubchem assays: 1829 (Project Summary), 1814 (Primary HTS)]; type: functional
[33] = Luminescence Cell-Based Dose Confirmation to Identify Activators of 5'UTR Stem-Loop Driven Alpha-Synuclein mRNA Translation in H4 Neuroglioblastoma Cells. [Related pubchem assays: 1829 (Project Summary), 1814 (Primary HTS)]; type: functional
[34] = reduction of Shn3 3'UTR-driven luciferase in osteoblasts – cell-based, Clone20 osteoblasts, firefly luciferase, cherry-picked, dose response (AID 624132); type: functional;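 also: firefly luciferase luminescence from reporter carrying the Shn3 3'UTR in osteoblasts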
[35] = non-specific 3'UTR reporter inhibition in Clone20-Shn3RL – cell-based, Renilla luciferase, cherry-picked, counter-screen for Shn3 inhibitor project, dose response (AID 624133); type: functional
[36] = loss of viability in HepG2 cells – cell-based, CellTiter-Glo, cherry-picked, cytotoxicity control for Shn3 inhibitor project, dose response (AID 624134); type: functional

Sequence of Mu-type opioid receptor (P35372 whole entry): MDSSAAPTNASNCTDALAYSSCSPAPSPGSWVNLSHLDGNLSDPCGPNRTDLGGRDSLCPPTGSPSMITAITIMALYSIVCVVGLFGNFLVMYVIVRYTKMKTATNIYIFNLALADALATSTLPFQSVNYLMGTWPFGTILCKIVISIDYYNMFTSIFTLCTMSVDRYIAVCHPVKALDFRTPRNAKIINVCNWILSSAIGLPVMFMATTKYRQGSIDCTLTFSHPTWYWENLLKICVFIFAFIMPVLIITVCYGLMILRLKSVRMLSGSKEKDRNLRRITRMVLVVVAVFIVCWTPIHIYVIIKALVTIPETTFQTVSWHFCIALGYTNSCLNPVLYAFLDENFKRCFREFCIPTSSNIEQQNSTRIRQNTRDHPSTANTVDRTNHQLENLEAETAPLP
Sequence of 5-hydroxytryptamine receptor 2A (P35363 whole entry): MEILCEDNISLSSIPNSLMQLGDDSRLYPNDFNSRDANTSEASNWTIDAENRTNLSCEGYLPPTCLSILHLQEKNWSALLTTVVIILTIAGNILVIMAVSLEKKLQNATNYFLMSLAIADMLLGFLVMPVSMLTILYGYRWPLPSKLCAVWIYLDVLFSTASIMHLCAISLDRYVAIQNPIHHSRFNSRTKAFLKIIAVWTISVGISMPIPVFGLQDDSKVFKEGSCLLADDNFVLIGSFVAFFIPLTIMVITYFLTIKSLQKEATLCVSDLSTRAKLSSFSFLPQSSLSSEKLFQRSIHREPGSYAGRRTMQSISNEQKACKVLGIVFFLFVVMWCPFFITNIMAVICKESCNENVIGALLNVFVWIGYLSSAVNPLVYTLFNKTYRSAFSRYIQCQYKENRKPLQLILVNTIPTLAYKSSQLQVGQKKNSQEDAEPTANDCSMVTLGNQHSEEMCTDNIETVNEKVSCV

O=C1NC[C@H](Cc2ccccc2)N(C[C@H]2CCCN2C[C@H](Cc2ccc(O)cc2)N2C[C@H](Cc3ccc(O)cc3)N(CC3CCCCCC3)C(=O)C2=O)C1=O
inactive: EC50 (Mu-type opioid receptor) 92.5 µM
active: EC50 [1] 4.46 µM

CCN(CCNCC(O)COc1ccccc1C(C)C)c1cccc(C)c1 (configuration not stated)
active: CC50 [2] 20 µM | CC50 [3] 14.2 µM | IC50 [4] 66.7 µM | CC50 [5] 36.1 µM

COc1ccc2c3c(n(C)c2c1)[C@H](CO)N(Cc1ccccc1F)CC31CCN(CC2CC2)CC1
active: AC50 [6] 3.46 µM

CN(C)CCN(C(=O)c1ccc2c(c1)OCCO2)c1nc2ccc(Cl)cc2s1
> 60 µM (not active): EC50 [10]
> 120 µM (not active): EC50 (H4) | EC50 [9]
active: EC50 (cells [7]) 0.088 µM | EC50 [8] 15.6 µM | EC50 [11] < 0.1 µM

CCC1Nc2cc(Cl)c(S(N)(=O)=O)cc2S(=O)(=O)N1 (configuration not stated) [ETHIAZIDE]
inactive: IC50 [12] > 20 µM | IC50 [13] > 20 µM | IC50 [14] > 20 µM | IC50 [15] > 20 µM | IC50 [16] > 20 µM | IC50 [17] > 6.67 µM | IC50 [18] > 20 µM | IC50 [19] > 20 µM

c1nc2nc[nH]c(N3CCN(Cc4ccc5c(c4)OCO5)CC3)c-2n1
inactive: EC50 (Mu-type opioid receptor) 92.5 µM
active: EC50 [1] 0.59 µM

CC1CCC(C(C)C)C(OC(=O)c2ccccc2O)C1 (configuration not stated)
inactive: IC50 [12] > 20 µM | IC50 [13] > 20 µM | IC50 [14] > 20 µM | IC50 [15] > 20 µM | IC50 [16] > 20 µM | IC50 [17] > 20 µM | IC50 [18] > 20 µM | IC50 [19] > 20 µM

COc1cccc(CC2(CO)CCCN(Cc3cn(C)c4ccccc34)C2)c1 (configuration not stated)
active: EC50 (cells [7]) 0.051 µM | EC50 [10] 20 µM | EC50 [11] < 0.1 µM

COc1ccc2cc3c(N)nn(C(=O)Cc4c[nH]c5ccccc45)c3nc2c1
active: EC50 [20] 23 µM | AC50 [21] 0.563 µM | EC50 [22] 0.269 µM | AC50 [23] 0.512 µM | AC50 [24] 7.5 µM | EC50 [26] < 0.1 µM | EC50 [27] 11.5 µM | AC50 [28] 0.261 µM | AC50 [30] 0.352 µM
> 350 µM (not active): EC50 (cells [25]) | EC50 (cells [29])

C=CCN1CCc2c(cc(O)c(O)c2Br)[C@@H](c2ccccc2)C1
active: EC50 [1] 0.0982 µM
inactive: EC50 (Mu-type opioid receptor) 92.5 µM

COc1ccc(C(=O)c2ccccc2O)c(O)c1 [DIOXYBENZONE]
inactive: IC50 [12] > 20 µM | IC50 [14] > 20 µM | IC50 [15] > 20 µM | IC50 [16] > 20 µM | IC50 [17] > 20 µM | IC50 [19] > 20 µM

Cc1ccc(-c2csc(NC(=O)C3=COCCO3)n2)cc1C
inconclusive: EC50 [8] < 0.1 µM
active: EC50 [31] 0.301 µM | EC50 [32] 2.75 µM | EC50 [33] 0.353 µM | EC50 [11] 0.846 µM
> 60 µM (not active): EC50 [10]

CC(=N)/C(C#N)=C(/O)CSc1nc2cc(C)ccc2[nH]1
active: EC50 [8] < 0.1 µM | EC50 [31] 0.296 µM | EC50 [32] 0.321 µM | EC50 [9] 1.68 µM | EC50 [33] 0.424 µM

Cc1ccsc1C(=O)C1CCCN(Cc2cnn(C(C)C)c2)C1 (configuration not stated)
inconclusive: EC50 [10] > 60 µM
active: EC50 (cells [7]) 0.01 µM | EC50 [11] < 0.1 µM

COc1ccc(CN2CC3(CCN(C(=O)c4ccccc4)CC3)c3c([nH]c4cc(OC)ccc34)[C@@H]2CO)cc1
active: AC50 [6] 3 µM

FC(F)(F)c1nc(-c2cccs2)ncc1-c1nnnn1-c1ccc(Cl)cc1
active: AC50 [34] 2.1 µM | AC50 [21] 2.87 µM | AC50 [35] 1.9 µM | AC50 [23] 29 µM | AC50 [24] 23 µM | AC50 [36] 29.1 µM | AC50 [30] 42.6 µM

CN(C)c1ccc(C(=C2C=CC(=[N+](C)C)C=C2)c2ccc(N(C)C)cc2)cc1 [GENTIAN VIOLET]
active: IC50 [12] 2.05 µM | IC50 [14] 0.466 µM | IC50 [15] 0.471 µM | IC50 [16] 0.514 µM | IC50 [17] 0.528 µM | IC50 [18] 0.394 µM | IC50 [19] 0.994 µM

Reference: ChEMBL document CHEMBL1201862, “PubChem BioAssay data set” (2004)
